# Target: S-adenosylmethionine decarboxylase proenzyme (Escherichia coli) (UniProt P0A7F6)
# Test: Tested for irreversible inhibitory activity against AdoMet-DC (S-adenosyl-methionine decarboxylase-) isolated from Escherichia coli
# Sequence of S-adenosylmethionine decarboxylase proenzyme (Escherichia coli) (P0A7F6 whole entry, looked up): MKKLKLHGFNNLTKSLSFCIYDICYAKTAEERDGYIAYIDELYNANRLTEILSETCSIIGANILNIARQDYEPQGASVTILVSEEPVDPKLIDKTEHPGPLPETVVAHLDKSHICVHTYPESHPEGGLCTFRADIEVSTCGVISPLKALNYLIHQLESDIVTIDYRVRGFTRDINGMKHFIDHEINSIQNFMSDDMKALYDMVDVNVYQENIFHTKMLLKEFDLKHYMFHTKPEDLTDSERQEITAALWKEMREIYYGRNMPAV
row,Ki,Structure (SMILES)
1,669 µM,C[S+](C[C@H]1O[C@@H](n2cnc3c(N)ncnc32)[C@H](O)[C@@H]1O)C1CCNC1 (stereo not given in full)
2,18 µM,C[S+](C[C@H]1O[C@@H](n2cnc3c(N)ncnc32)[C@H](O)[C@@H]1O)C1C=C[C@H](N)C1 (stereo not given in full)

# More lines, now with the values behind:
row,Structure (SMILES),Ki
1,Nc1ncnc2c1ncn2[C@@H]1O[C@H](CSC2CCNC2)[C@@H](O)[C@H]1O (stereo not given in full),415 µM
2,Nc1ncnc2c1ncn2[C@@H]1O[C@H](CS[C@H]2CN[C@H](C(=O)O)C2)[C@@H](O)[C@H]1O,960 µM
3,Nc1ncnc2c1ncn2[C@@H]1O[C@H](CS[C@@H]2CN[C@H](C(=O)O)C2)[C@@H](O)[C@H]1O,478 µM
